Consider 33 compounds from patent publication US6066642A, “Dihydropyridine-, pyridine-, benzopyran-4-one- and triazoloquinazoline derivative, their preparation and their use as adenosine receptor antagonists” (priority 1998, dated 2000).

The target of one assay is T1, human A3 receptors (Homo sapiens, UniProt P0DMS8).
T1 construct: expressed in transfected cells; host or cells: HEK-293 cells (membranes)
T1 sequence (P0DMS8 1-318): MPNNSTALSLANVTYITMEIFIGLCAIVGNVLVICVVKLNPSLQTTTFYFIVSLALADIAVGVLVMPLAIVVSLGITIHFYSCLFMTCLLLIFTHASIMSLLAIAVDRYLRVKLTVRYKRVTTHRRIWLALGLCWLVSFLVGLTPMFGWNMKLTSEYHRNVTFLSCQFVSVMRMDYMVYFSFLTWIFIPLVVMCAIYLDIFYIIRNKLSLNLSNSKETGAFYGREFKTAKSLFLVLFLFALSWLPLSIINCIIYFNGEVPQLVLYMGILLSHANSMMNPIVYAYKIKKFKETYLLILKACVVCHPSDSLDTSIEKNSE
The experiment in a line: radioligand binding, displacement of specific [125I]AB-MECA binding at human A3 receptors expressed in HEK-293 cells. Particulars: for inhibition at 100 µM: 10^-4 M.

For the next assay, the target named is T2, A2a receptors (Rattus norvegicus, UniProt P30543).
T2 construct: Displacement of specific [^3 H]; from tissue; host or cells: rat striatal membranes
T2 sequence (P30543 whole entry): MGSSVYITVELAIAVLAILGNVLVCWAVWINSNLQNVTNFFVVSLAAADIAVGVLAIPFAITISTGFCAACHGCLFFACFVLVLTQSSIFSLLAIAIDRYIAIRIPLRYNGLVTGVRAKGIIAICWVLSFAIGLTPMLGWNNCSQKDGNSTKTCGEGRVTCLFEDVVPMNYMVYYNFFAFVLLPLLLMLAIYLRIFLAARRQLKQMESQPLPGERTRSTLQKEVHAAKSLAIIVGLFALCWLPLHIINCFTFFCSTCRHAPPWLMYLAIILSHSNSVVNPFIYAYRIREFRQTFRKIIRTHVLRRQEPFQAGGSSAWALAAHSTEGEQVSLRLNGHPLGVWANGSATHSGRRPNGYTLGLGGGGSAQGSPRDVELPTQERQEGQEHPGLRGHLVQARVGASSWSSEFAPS
Put plainly: radioligand binding, displacement of specific [3H]CGS 21680 binding in rat striatal membranes. Particulars: for inhibition at 100 µM: 10^-4 M.

The next assay deals with T3, A1 receptors (Rattus norvegicus, UniProt P25099).
T3 sequence (P25099 1-326): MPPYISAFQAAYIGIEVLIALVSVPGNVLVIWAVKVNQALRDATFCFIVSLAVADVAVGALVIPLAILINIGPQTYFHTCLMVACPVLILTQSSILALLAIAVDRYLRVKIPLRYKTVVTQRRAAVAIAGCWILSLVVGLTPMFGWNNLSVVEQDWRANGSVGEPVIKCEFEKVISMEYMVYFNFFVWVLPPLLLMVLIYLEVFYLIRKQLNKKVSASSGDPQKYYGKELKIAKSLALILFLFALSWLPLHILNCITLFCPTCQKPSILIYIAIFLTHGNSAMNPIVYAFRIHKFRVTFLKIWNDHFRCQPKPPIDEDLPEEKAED
The experiment in a line: biochemical. Type of assay: binding. Particulars: for Ki: rat brain membranes; for inhibition at 100 µM: 10^-4 M.

The mark [1] stands for this setting: Table 15, [125I]AB-MECA, HEK membranes, read-out: Ki hA3.
Setting [2] is: Table 12, read-out: % inhibition rA2A.
The mark [3] stands for this setting: Table 12, [125I]AB-MECA, HEK membranes, read-out: Ki hA3.
Setting [4] is: Table 11, [125I]AB-MECA, HEK membranes, read-out: Ki hA3.
Setting [5] is: Table 3, [3H]CGS 21680, rat striatal membranes, read-out: Ki rA2a.
The mark [6] stands for this setting: Table 6, [125I]AB-MECA, HEK-293 membranes, read-out: K2 (hA3).
The mark [7] stands for this setting: Table 7, read-out: % of specific binding displaced hA3.
[8] abbreviates: Table 7, [3H]CGS 21680, rat striatal membranes, read-out: Ki (rA2A).
Where [9] appears, read: Table 16, [125I]AB-MECA, HEK membranes, read-out: Ki hA3.
Setting [10] is: Table 9, [3H]CGS 21680, rat striatal membranes, read-out: Ki rA2A.
Setting [11] is: Table 12, read-out: displacement of specific binding rA1.
[12] abbreviates: Table 11, read-out: displacement of specific binding rA2A.
[13] abbreviates: Table 11, read-out: % inhibition rA1.

Read-outs that look alike come from different tables or passages of the source. Bounds are passed on as bounds.

Method for A1 receptors: ^a Displacement of specific [^3 H] PIA binding in rat brain
percentage of specific binding displaced at 100 μM.
Method for A2a receptors: ^b Displacement of specific [^3 H]
or as a percentage of specific binding displaced at 100 μM.
Method for human A3 receptors: A3 receptors expressed in HEK293 cells, in membranes, expressed as
binding displaced at 100 μM.

For the compound “9-Chloro-2-(2-furyl)-5-(4'-iodobenzoyl)amino[1,2,4]triazolo [1,5-c]quinazoline [Compound 152]”, the Ki at human A3 receptors (setting [1]) turned out to be 23.8 ± 5.2 nM.

As for `CCOC(=O)C1=C(C)NC(c2ccccc2)=C(C(=O)O)C1C#Cc1ccccc1` (racemic) [Compound 131, 3-Ethoxycarbonyl-2-methyl-4-phenylethynyl-6-phenyl-1,4(±)-dihydropyridine-5-carboxylic acid], the inhibition at 100 µM on A2a receptors (setting [2]) came out at 16 ± 6%. Moreover, at human A3 receptors (Table 12, 10^-5 M, read-out: displacement of specific binding hA3), the inhibition at 10 µM is < 10%.

`CCOC(=O)C1=C(C)NC(c2ccccc2)=C(C(=O)OCc2ccc(C(=O)NCCN)cc2)C1C#Cc1ccccc1` (centres unmarked) [Compound 123]: the Ki on human A3 receptors (setting [3]) is 10 nM.

For the compound `CCOC(=O)C1=C(C)NC(c2ccccc2)=C(C(=O)OCc2ccccc2)C1C#Cc1ccc([N+](=O)[O-])cc1` (centres unmarked) [Compound 102], the Ki at human A3 receptors (setting [4]) is < 100 nM.

Regarding `CCOc1ccc(-c2oc3cc(OCC)cc(OCC)c3c(=O)c2OCC)c(OCC)c1` [Compound 8, 2',3,4',5,7-Pentaethoxyflavone], the Ki turned out to be 26.8 µM on A2a receptors (setting [5]) and 7270 ± 1880 nM at human A3 receptors (Table 3, [125I]AB-MECA, HEK-293 membranes, read-out: Ki hA3).

As for `COc1ccc(-c2ccncc2)cc1` [Compound 83], at A2a receptors (Table 10, [3H]CGS 21680, rat striatal membranes, read-out: Ki rA2a), the Ki came out at 71 ± 29 µM. At human A3 receptors (Table 10, read-out: displacement of specific binding hA3), the inhibition at 100 µM was < 10%.

Take `COc1ccc(-c2oc3cc(OC)cc(OC)c3c(=O)c2OC)cc1` [Compound 35, 3,4',5,7-tetramethoxyflavone]: the Ki was determined as 3370 ± 1830 nM at human A3 receptors (setting [6]) and 1.07 µM on A1 receptors (Table 6, [3H]PIA, read-out: K2 (rA1)).

Regarding `CCCOc1c2ccoc2cc2oc(/C=C/c3ccccc3)cc(=O)c12` [Compound 21, 4-propyloxy-7-trans-styryl-visnagin], the Ki on human A3 receptors (Table 5, [125I]AB-MECA, HEK-293 membranes, read-out: Ki hA3) stood at 3950 nM.

Consider `O=c1cc(-c2ccccc2)oc2cccc(O)c12` [Compound 25, reference compound], for which the Ki on A2a receptors (Table 6, [3H]CGS 21680, rat striatal membranes, read-out: K2 (rA2a)) came to 6.2 ± 1.24 µM. Also, the inhibition at 100 µM at human A3 receptors (Table 6, read-out: % inhibition hA3) was 47 ± 12%.

Consider `Nc1nc2ccc(Cl)cc2c2nc(-c3ccc(Br)o3)nn12` [Compound 157], for which the Ki on human A3 receptors (setting [1]) came to 54 ± 13.1 nM.

As to `O=c1c(-c2ccc(O)cc2)coc2cc(O)cc(O)c12` [Compound 40, genistein, reference compound], at human A3 receptors (setting [7]), the inhibition at 100 µM worked out at 20 ± 2%.

Regarding `COc1cc(O)c2c(c1)O[C@H](c1ccc(O)cc1)CC2=O` [Compound 42, sakuranetin, reference compound], the Ki at human A3 receptors (Table 7, [125I]AB-MECA, HEK-293 membranes, read-out: Ki (hA3)) stood at 3400 ± 180 nM.

`COc1cc(O)c2c(=O)c(O)c(-c3ccc(O)c(O)c3)oc2c1` [Compound 36, rhamnetin, reference compound]: the Ki at human A3 receptors (setting [6]) turned out to be 1380 ± 180 nM.

Take `CCOC(=O)C1=C(C)NC(c2ccccc2)=C(C(=O)OCc2ccccc2)C1C#Cc1ccc(N)cc1` (centres unmarked) [Compound 103]: on human A3 receptors (setting [4]), the Ki was < 100 nM.

With `CCOCN1C(C)=C(C(=O)OCC)C(C#Cc2ccccc2)C(C(=O)O)=C1c1ccccc1` (racemic) [Compound 139, 1-Ethoxymethyl-3-ethoxycarbonyl-2-methyl-4-phenylethynyl-6-phenyl-1,4-(±)-dihydropyridine-5-carboxylic acid], the inhibition at 100 µM at A2a receptors (setting [2]) came to 36 ± 7%. In addition, at human A3 receptors, the rA1/hA3 is given as > 1. The Ki on human A3 receptors (setting [3]) was > 100000 nM.

Regarding `Nc1nc2ccc(Cl)cc2c2nc(-c3ccco3)nn12` [Compound 144, reference compound], the Ki on human A3 receptors (read-out: Ki hA3) is 13.8 ± 2.4 nM.

Turning to `O=C1c2ccccc2-c2cc3c(cc21)OCO3` [Compound 49, 2,3-methylenedioxy-fluorene-9-one], the Ki at A2a receptors (setting [8]) worked out at 84 ± 6.9 µM. Also, the inhibition at 100 µM at human A3 receptors (setting [7]) came to 52 ± 6%.

For the compound `O=C1c2ccccc2O[C@H](c2ccccc2O)[C@H]1O` (relative stereo) [Compound 14, reference compound], the inhibition at 100 µM is < 10% at A2a receptors (Table 4, read-out: displacement of specific binding rA2a) and 27 ± 3% at human A3 receptors (Table 4, read-out: % of specific binding displaced hA3). In addition, the rA1/hA3 at human A3 receptors (Table 4, ratio of Ki) is reported as < 1.

As to `COc1cc(OC)c2c(=O)c(OC)c(-c3cc(OC)c(OC)c(OC)c3)oc2c1` [Compound 39, hexamethylmyricetin], the Ki at human A3 receptors (setting [6]) was 16200 ± 2200 nM. Besides, on A1 receptors (Table 6, 10^-6 M, read-out: displacement of specific binding rA1), the inhibition at 1 µM was < 10%.

Turning to `Nc1ccc(CC(=O)Nc2nc3ccc(Cl)cc3c3nc(-c4ccco4)nn23)cc1` [Compound 163], on human A3 receptors (setting [9]), the Ki came to 4 nM.

For `CCOC(=O)C1=C(C)NC(c2ccccc2)=C(C(=O)OCC)C1/C=C/c1ccccc1` (centres unmarked) [Compound 79], on A2a receptors (setting [10]), the Ki was 4.77 ± 0.29 µM. The “greater affinity for A3 than A1 or A2a adenosine receptors” value at human A3 receptors (selectivity in words) is “greater affinity for A3 adenosine receptors than A1 or A2a adenosine receptors”.

Consider `CCOC(=O)C1=C(C)NC(c2ccccc2)=C(C(=O)OC(C)(C)C)C1C#Cc1ccccc1` (racemic) [Compound 127, 3-Ethyl 5-t-butyl 2-methyl-4-phenylethynyl-6-phenyl-1,4-(±)-dihydropyridine-3.5-dicarboxylate], for which the inhibition at 100 µM on A2a receptors (setting [2]) was 27 ± 5%. For the same compound, the Ki on A1 receptors (Table 12, [3H]R-PIA, read-out: Ki rA1) amounted to 25.3 µM.

Turning to `CCOC(=O)C1=C(C)NC(c2ccccc2)=C(C(=O)OCc2ccc(C(F)(F)F)cc2)C1C#Cc1ccccc1` (racemic) [Compound 122d], the inhibition at 100 µM at A2a receptors (setting [2]) came out at 15%; at A1 receptors (Table 12, read-out: % inhibition rA1), 32 ± 3%.

Take `CCOC(=O)C1=C(C)NC(c2ccccc2)=C(C(=O)OCc2ccccc2)C1C#Cc1ccc(N)c(I)c1` (centres unmarked) [Compound 104]: the Ki on human A3 receptors (setting [4]) is < 100 nM.

On to `CCOC(=O)C1=C(C)NC(c2ccccc2)=C(C(=O)OCCCc2ccccc2)C1C#Cc1ccccc1` (racemic) [Compound 126, 3-Ethyl 5-phenylpropyl 2-methyl-4-phenylethynyl-6-phenyl-1,4-(±)-dihydropyridine-3,5-dicarboxylate], for which the inhibition at 100 µM was < 10% at A2a receptors (Table 12, read-out: displacement of specific binding rA2A) and < 10% at A1 receptors (setting [11]).

With `CCOC(=O)C1=C(C)NC(c2ccccc2)=C(C(=O)OCc2ccccc2)C1/C=C/c1ccc([N+](=O)[O-])cc1` (centres unmarked) [Compound 100], the inhibition at 100 µM on A2a receptors (setting [12]) is < 10%; on A1 receptors (setting [13]), 33%.

Consider `Nc1ccc(CC(=O)Nc2nc3ccc(Cl)cc3c3nc(-c4ccco4)nn23)cc1I` [Compound 164], for which the Ki at human A3 receptors (setting [9]) was found to be 1 nM.

Take `CCOC(=O)C1=C(C)NC(c2ccccc2)=C(C(=O)OCc2ccc(C)cc2)C1C#Cc1ccccc1` (racemic) [Compound 122c]: the inhibition at 100 µM on A2a receptors (setting [2]) was 17 ± 3%; on A1 receptors (setting [11]), < 10%.

Regarding `O=C(CCc1ccccc1)Nc1nc2ccc(Cl)cc2c2nc(-c3ccco3)nn12` [Compound 160], the Ki on A2a receptors (read-out: Ki rA2A) came out at 0.0283 ± 0.0103 µM; at human A3 receptors (setting [9]), 29.7 ± 7.7 nM.

Regarding `CCOC(=O)C1=C(c2ccccc2)NC(C)=C(C(=O)OCc2ccccc2)C1C#Cc1ccccc1` (centres unmarked) [Compound 107], the inhibition at 100 µM on A2a receptors (setting [12]) is < 10%; on A1 receptors (setting [13]), 24 ± 4%.

As for `COC(=O)C1=C(C)NC(C)=C(C(=O)OCCN(C)Cc2ccccc2)C1c1cccc([N+](=O)[O-])c1` (centres unmarked) [Compound 63, reference compound], the Ki at A2a receptors (setting [10]) came out at 63.8 µM; at A1 receptors (Table 9, [3H]PIA, read-out: Ki rA1), 19.6 µM. Moreover, the “greater affinity to A1 than A2a adenosine receptors” value at A1 receptors (selectivity in words) is “greater affinity to A1 adenosine receptors than A2a receptors”.

In the case of `O=c1cc(-c2ccccc2)oc2ccccc12` [Compound 11a, flavone, reference compound], the Ki on A2a receptors (setting [5]) stood at 3.45 ± 1.16 µM; at A1 receptors (Table 3, [3H]PIA, read-out: Ki rA1), 3.28 ± 0.92 µM.

Take `COc1cc2c3c(oc(=O)c2cc1OC)CCCC3=O` [Compound 45]: the Ki at A2a receptors (setting [8]) amounted to 29.9 ± 10.1 µM. Besides, the inhibition at 100 µM on human A3 receptors (Table 7, read-out: displacement of specific binding hA3) was < 10%.
